From patent publication US10865211B2 (ENANTA PHARMACEUTICALS, INC, priority 2018, dated 2020)

Legend:
2.2.15 cells = test: Antiviral activity in 2.2.15 cells: reduction of viral product accumulation (qPCR, HBsAg/HBeAg ELISA); type: cell-based, HBV; details: Hepatitis B virus, 120 h, day 5 post treatment, concentration reducing viral product accumulation in cell lysates or supernatants by 50% relative to no drug controls
In short: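 HBV-producing 2.2.15 cells, 35,000/well, treated with 5-fold serial compound dilutions at 0.5% final DMSO for 5 days. Lysate HBV DNA by qPCR or supernatant HBsAg/HBeAg by ELISA; EC50 is 50% reduction versus no-drug control, binned A<0.1 μM, B 0.1-1 μM, C>1 μM.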

[1] = Compound induced cellular toxicity in HepG2 cells (ATPlite); type: cell-based; details: human, three days, ATPlite 1 Step, concentration reducing total ATP levels by 50% relative to no drug controls
Description: At day 3, post seeding cells are treated with ATPlite 1 Step according to the manufacturer's instructions.

Compound	EC50 (2.2.15 cells) [nM]	CC50 at 3 days [1] [µM]
CC(C)[C@@H]1Cc2c(oc3c(C4CC4)cccc23)-c2cc(=O)c(C(=O)O)cn21 [Example 83, (S)-11-cyclopropyl-6-isopropyl-2-oxo-6,7-dihydro-2H-benzofuro[2,3-a]quinolizine-3-carboxylic acid]	< 100	< 10
CC(C)[C@@H]1Cc2c(oc3c(-c4cnco4)cccc23)-c2cc(=O)c(C(=O)O)cn21 [Example 84, (S)-6-isopropyl-11-(oxazol-5-yl)-2-oxo-6,7-dihydro-2H-benzofuro[2,3-a]quinolizine-3-carboxylic acid]	< 100	> 25
